Measured values as given in patent publication US8399381B2, “Condensed heterocyclic sulfonyl urea compound, a herbicide containing the same, and a method for weed control using the same” (Sumitomo Chemical Company, Limited, priority 2002, dated 2013).

How the values were obtained:
[1] = tested on: sulfonylurea herbicide-resistant Lindernia dubia subsp. major Pennell; assay: Paddy pot weeding test, flooded, two-leaf stage (Test Example 1); format: in vivo; settings: 1 g/are, three weeks after treatment, resistant biotype, Kawanishi Town, Yamagata Pref.
Excerpt: (§1) A 5 cm×5 cm Jiffy Pot™ was charged with paddy soil, then water was introduced into each pot, seeds of sulfonylurea herbicide-sensitive Scirpus juncoides var. ohwianus, sulfonylurea herbicide-sensitive Lindernia procumbens (Krock.) Philcox, sulfonylurea herbicide-sensitive Lindernia dubia subsp. major Pennell, sulfonylurea herbicide-resistant Scirpus juncoides var. ohwianus, sulfonylurea herbicide-resistant Lindernia procumbens (Krock.) Philcox and sulfonylurea herbicide-resistant Lindernia dubia subsp. major Pennell were sowed therein and cultivated for a prescribed period under flooding conditions. When the plants reached the two-leave stage, the prescribed number of Jiffy Pots where the plants had been grown were transferred to a 150-cm^2 rectangular plastic pot, and water was introduced to a height of 3 cm, and a chemical diluent containing a compound was applied into the pot in an amount of 1 g/are. The chemical diluent was prepared by dissolving 1.5 g compound in 2 L of N,N-dimethylformamide (DMF) containing, 2% (W/V) surfactant Tween™ 20 and then diluting it with water to adjust the total volume to 10 L.

[2] = tested on: sulfonylurea herbicide-sensitive Lindernia dubia subsp. major Pennell; assay: as above; format: in vivo; settings: 1 g/are, three weeks after treatment, sensitive biotype, Makabe Town, Ibaraki Pref.
Excerpt: as §1

[3] = tested on: sulfonylurea herbicide-resistant Scirpus juncoides var. ohwianus; assay: as above; format: in vivo; settings: 1 g/are, three weeks after treatment, resistant biotype, Iwamisawa City, Hokkaido
Excerpt: as §1

[4] = tested on: sulfonylurea herbicide-sensitive Lindernia procumbens (Krock.) Philcox; assay: as above; format: in vivo; settings: 1 g/are, three weeks after treatment, sensitive biotype, Kyoto Pref.
Excerpt: as §1

[5] = tested on: sulfonylurea herbicide-resistant Lindernia procumbens (Krock.) Philcox; assay: as above; format: in vivo; settings: 1 g/are, three weeks after treatment, resistant biotype, Tajiri Town, Miyagi Pref.
Excerpt: as §1

[6] = tested on: sulfonylurea herbicide-sensitive Scirpus juncoides var. ohwianus; assay: as above; format: in vivo; settings: 1 g/are, three weeks after treatment, sensitive biotype, Kyoto Pref.
Excerpt: as §1

| melting point | SMILES | R Lindernia dubia subsp. major Pennell (effect index) [1] | S Lindernia dubia subsp. major Pennell (effect index) [2] | R Scirpus juncoides var. ohwianus (effect index) [3] | S Lindernia procumbens (Krock.) Philcox (effect index) [4] | R Lindernia procumbens (Krock.) Philcox (effect index) [5] | S Scirpus juncoides var. ohwianus (effect index) [6] |
| --- | --- | --- | --- | --- | --- | --- | --- |
| 174 to 176 °C | CCc1nc2ccc(N(C)C)nn2c1NC(=O)NS(=O)(=O)c1nc(OC)cc(OC)n1 [Compound No. 4] | 5 (excellent 81 to 100) | 5 (excellent 81 to 100) | 5 (excellent 81 to 100) | 5 (excellent 81 to 100) | 3 (moderate 41 to 60) | 5 (excellent 81 to 100) |
| 190 to 201 °C | COc1cc(OC)nc(S(=O)(=O)NC(=O)Nc2c(S(C)(=O)=O)nn3ccsc23)n1 [Compound No. 35] | 5 (excellent 81 to 100) | 5 (excellent 81 to 100) | 5 (excellent 81 to 100) | 5 (excellent 81 to 100) | 3 (moderate 41 to 60) | 5 (excellent 81 to 100) |
